Measurements reported in patent publication US12378240B2, “Naphthyridinone-aniline compounds for treatment of dermal disorders” (NFlection Therapeutics, Inc., priority 2018, dated 2025).

How the values were obtained:
MEK1 = MEK1 (Homo sapiens (Human), UniProt Q02750); assay: MEK1 inhibition assay (Z'-LYTE biochemical assay); settings: MAP2K1 (MEK1)/inactive MAPK1 (ERK2)/Ser/Thr 03 cascade, 10 point titration; read-out: IC50 against MEK1
Protocol: MEK1 inhibitory activity of compounds were tested using the following procedure (protocol available at thermofisher.com/content/dam/LifeTech/migration/files/drug-discovery/pdfs.par.60256.file.dat/20130430%20ssbk%20customer%20protocol%20and%20assay%20conditions.pdf). The Z′-LYTE biochemical assay (ThermoFisher) employs a fluorescence-based, coupled-enzyme format and is based on the differential sensitivity of phosphorylated and non-phosphorylated peptides to proteolytic cleavage.
Test compounds in 100% DMSO were screened in 1% DMSO (final) in the well. For 10 point titrations, 3-fold serial dilutions are conducted from the starting concentration of 30 μM.
After the 1 hour incubation, 5 μL of a 1:1024 dilution of Development Reagent A (available from Invitrogen, catalog no. PV3295) was added.
ATP solutions were diluted to a 4× working concentration in Kinase Buffer (50 mM HEPES pH 7.5, 0.01% BRIJ-35, 10 mM MgCl2, 1 mM EGTA). ATP Km apparent was previously determined using a Z′-LYTE assay. The Development Reagent was diluted in Development Buffer (available from Invitrogen, catalog no. P3127).
Assay Protocol: 2.5 μL of 4× test compound or 100 nL of 100× Test Compound plus 2.4 μL Kinase Buffer, 5 μL of the 2× Peptide/Kinase Mixture, 2.5 μL of 4×ATP Solution were added to the plates and placed on a shake plate for 30-seconds. The kinase reaction was allowed to proceed for 60-minute at room temperature, before 5 μL of Development Reagent Solution was added, and the mixture agitated for 30-seconds on a shake plate. The mixture was incubated for 60-minute at room temperature. Fluorescence was measured using a plate reader and the data were analyzed.
This control yielded 100% cleaved peptide in the Development Reaction. The 100% Phosphorylation Control, which consisted of a synthetically phosphorylated peptide of the same sequence as the peptide substrate, was designed to allow for the calculation of percent phosphorylation. This control yielded a very low percentage of cleaved peptide in the Development Reaction. The 0% Phosphorylation and 100% Phosphorylation Controls allow for the calculation of the percent phosphorylation achieved in a specific reaction well.
The minimum emission ratio in a screen was established by the 0% Inhibition Control, which contained active kinase. This control was designed to produce a 10-50% phosphorylated peptide in the Kinase Reaction. […]
A known inhibitor control standard curve, 10 point titration, was run for each individual kinase on the same plate as the kinase to ensure the kinase was inhibited within an expected IC50 range previously determined.
The following controls are prepared for each concentration of Test Compound assayed. […] The expected value for a non-fluorescence compound should be 0%. […]
The data in Table A was calculated. […]

[1] = Human liver S9 fraction stability assay; assay type: in vitro ADME; settings: pH 7.4, human liver S9, 1 μM test compound, 2 mg/mL protein, 1 mM NADPH, 37° C., read-out: Liver S9 fraction stability, t1/2
Protocol: Compounds can be assessed for metabolic stability in human skin by assessing their rate of disappearance from human S9 skin fraction. Similarly, compounds can be assessed for metabolic stability in human liver by assessing their rate of disappearance from human S9 liver fraction. The protocol below is used to assess the difference between skin and hepatic metabolism.
The assay was carried out in 96-well microtiter plates at 37° C. Reaction mixtures (25 μL) contained a final concentration of 1 μM test compound, 2 mg/mL liver or skin protein, and 1 mM NADPH in buffer (100 mM potassium phosphate, pH 7.4 buffer with 1 mM EDTA, 3 mM MgCl2). At each of the time points (0, 15, 30, and 60 minutes), 150 μL of quench solution (100% acetonitrile with 0.1% formic acid) with internal standard was transferred to each well. Besides the zero minute controls, mixtures containing the same components except the NADPH were also prepared as the negative control. Verapamil or testosterone was included as a positive control to verify assay performance. Plates were sealed and centrifuged at 4° C. for 15 minutes at 4000 rpm. The supernatant was transferred to fresh plates for LC/MS/MS analysis.
All samples were analyzed on LC/MS/MS using an AB Sciex API 4000 instrument, coupled to a Shimadzu LC-20AD LC Pump system. Analytical samples were separated using a Waters Atlantis T3 dC18 reverse phase HPLC column (20 mm×2.1 mm) at a flow rate of 0.5 mL/min. The mobile phase consisted of 0.1% formic acid in water (solvent A) and 0.1% formic acid in 100% acetonitrile (solvent B).
The extent of metabolism was calculated as the disappearance of the test compound, compared to the 0-min control reaction incubations. Initial rates were calculated for the compound concentration and used to determine t1/2 values and subsequently, the intrinsic clearance, CLint=(0.693) (1/t1/2 (min)) (mL incubation/mg of S9 protein).
Table 4 lists t1/2 values for the above liver S9 stability assay. […]

Chain of MEK1 (Q02750 whole entry): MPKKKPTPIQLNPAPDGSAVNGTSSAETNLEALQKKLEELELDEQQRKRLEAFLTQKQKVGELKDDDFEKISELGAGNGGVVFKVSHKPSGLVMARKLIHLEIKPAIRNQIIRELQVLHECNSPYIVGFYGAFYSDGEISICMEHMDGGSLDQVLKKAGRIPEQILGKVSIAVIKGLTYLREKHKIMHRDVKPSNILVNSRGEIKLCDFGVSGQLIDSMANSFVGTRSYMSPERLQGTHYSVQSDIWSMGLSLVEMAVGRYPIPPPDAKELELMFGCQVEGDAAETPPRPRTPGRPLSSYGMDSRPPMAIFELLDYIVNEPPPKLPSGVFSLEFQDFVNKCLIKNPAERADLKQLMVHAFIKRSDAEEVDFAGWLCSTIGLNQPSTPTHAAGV

| IC50 (MEK1) | half-life at 1 μM [1] | Compound |
| --- | --- | --- |
| ≤ 0.15 µM | – | O=c1c2c(Nc3ccc(I)cc3F)cncc2ccn1C[C@@H](O)CO [Compound 1.001, (R)-2-(2,3-Dihydroxypropyl)-8-(2-fluoro-4-iodophenylamino)-2,6-naphthyridin-1(2H)-one] |
| ≤ 0.15 µM | – | O=c1c2c(Nc3ccc(I)cc3F)cncc2ccn1C[C@H](O)CO [Compound 1.002, (S)-2-(2,3-Dihydroxypropyl)-8-(2-fluoro-4-iodophenylamino)-2,6-naphthyridin-1(2H)-one] |
| > 1.5 µM | – | O=C(O)Cn1ccc2cncc(Nc3ccc(I)cc3F)c2c1=O [Compound 1.004, 2-(8-(2-Fluoro-4-iodophenylamino)-1-oxo-2,6-naphthyridin-2(1H)-yl)acetic acid] |
| > 1.5 µM | – | COC(=O)Cn1ccc2cncc(Nc3ccc(I)cc3F)c2c1=O [Compound 1.005, Methyl 2-(8-(2-fluoro-4-iodophenylamino)-1-oxo-2,6-naphthyridin-2(1H)-yl)acetate] |
| – | 50 to 200 min | O=c1c2c(Nc3ccc(I)cc3F)cncc2ccn1OCCO [Compound 1.007, 8-(2-Fluoro-4-iodophenylamino)-2-(2-hydroxyethoxy)-2,6-naphthyridin-1(2H)-one] |
| – | 50 to 200 min | O=C1c2c(cncc2Nc2ccc(I)cc2F)CCN1OCCO [Compound 1.010, 8-(2-Fluoro-4-iodophenylamino)-2-(2-hydroxyethoxy)-3,4-dihydro-2,6-naphthyridin-1(2H)-one] |
| – | ≤ 50 min | O=C1NCCc2cncc(Nc3ccc(I)cc3F)c21 [Compound 1.012, 8-((2-Fluoro-4-iodophenyl)amino)-3,4-dihydro-2,6-naphthyridin-1(2H)-one] |
